US6559140B2 (Abbott Laboratories, priority 2000, dated 2003)
pKi: −log10 of the molar value.

Target: H3 receptor (Rattus norvegicus, UniProt Q9QYN8)
Assay: H3 receptor binding, (3H)-N-α-methylhistamine displacement in rat cortical membranes
Details: male Sprague-Dawley rat brain cortical membranes, 30 minutes at 25° C., Cheng-Prusoff, geometric mean values of 2-10 separate experiments
Description: Briefly, male Sprague-Dawley rat brain cortices were homogenized (1 g tissue/10 mL buffer) in 50 mM Tris-HCl/5 mM EDTA containing protease inhibitor cocktail (Calbiochem) using a polytron set at 20,500 rpm. Homogenates were centrifuged for 20 minutes at 40,000×g. The supernatant was decanted, and pellets were weighed. The pellet was resuspended by polytron homogenization in 40 mL 50 mM Tris-HCl/5 mM EDTA with protease inhibitors and centrifuged for 20 minutes at 40,000×g. […] Test compounds were added to the incubation mixtures prior to initiating the incubation assay by addition of the membranes. Thioperamide (3 μM) was used to determine nonspecific binding. Binding incubations were conducted for 30 minutes at 25° C. and terminated by addition of 2 mL of ice cold 50 mM Tris-HCl (H 7.7) and filtration through 0.3% polyethylenimine-soaked Unifilter plates (Packard). These filters were washed 4 additional times with 2 mL of ice-cold 50 mM Tris-HCl and dried for 1 hour. Radioactivity was determined using liquid scintillation counting techniques. Results were analyzed by Hill transformation and Ki values were determined using the Cheng-Prusoff equation.

Chain of H3 receptor (Q9QYN8 1-397 isoform Q9QYN8-3): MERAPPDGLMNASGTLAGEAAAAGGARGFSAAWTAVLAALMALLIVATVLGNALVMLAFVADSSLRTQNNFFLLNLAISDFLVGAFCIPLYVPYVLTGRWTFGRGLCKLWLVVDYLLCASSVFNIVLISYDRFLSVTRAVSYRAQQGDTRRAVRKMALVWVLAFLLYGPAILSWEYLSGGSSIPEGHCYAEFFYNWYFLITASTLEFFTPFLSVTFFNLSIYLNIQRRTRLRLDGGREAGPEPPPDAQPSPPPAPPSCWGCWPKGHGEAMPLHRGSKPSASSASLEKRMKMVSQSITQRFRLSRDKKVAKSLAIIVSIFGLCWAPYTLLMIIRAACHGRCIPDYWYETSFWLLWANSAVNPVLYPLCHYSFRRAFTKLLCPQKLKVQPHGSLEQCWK

SMILES	pKi
N[C@H](COCc1ccccc1)C(=O)N1CCN(CCCOc2ccc(C(=O)C3CC3)cc2)CC1 [Example 75, (4-(3-(4-((2R)-2-amino-3-(benzyloxy)propanoyl)-1-piperazinyl)propoxy)phenyl)(cyclopropyl)methanone]	8.33
CC(C)OCc1nc(-c2ccc(OCCCN3CCCN(C(=O)[C@@H](C)NC(=O)c4ccco4)CC3)cc2F)no1 [Example 143, N-{(1R)-2-[4-(3-{3-fluoro-4-[5-(isopropoxymethyl)-1,2,4-oxadiazol-3-yl]phenoxy}propyl)-1,4-diazepan-1-yl]-1-methyl-2-oxoethyl}-2-furamide]	8.40
N#Cc1ccc(-c2ccc(OCCN3CCN(C(=O)[C@@H]4CCCN4)CC3)cc2)cc1 [Example 140, 4′-(2-(4-((2S)-pyrrolidinylcarbonyl)-1-piperazinyl)ethoxy)(1,1′-biphenyl)-4-carbonitrile]	6.09
C[C@@H](NC(=O)c1ccc(Oc2ccccc2)cc1)C(=O)N1CCN(CCCOc2ccc(C(=O)C3CC3)cc2)CC1 [Example 195]	8.86
N#Cc1ccc(-c2ccc(OCCCN3CCCN(C(=O)[C@@H](Cc4cscn4)NC(=O)c4ccco4)CC3)cc2)cc1 [Example 137, N-((1R)-2-(4-(3-((4′-cyano(1,1′-biphenyl)-4-yl)oxy)propyl)-1,4-diazepan-1-yl)-2-oxo-1-(1,3-thiazol-4-ylmethyl)ethyl)-2-furamide]	9.68
C[C@H](CCOc1ccc(C(=O)C2CC2)cc1)N1CCN(C(=O)[C@@H](C)N)CC1 [Example 62, (4-(((3R)-3-(4-((2R)-2-aminopropanoyl)-1-piperazinyl)butyl)oxy)phenyl)(cyclopropyl)methanone]	8.84

Next, values leading:

pKi	SMILES
8.05	C[C@@H](NC(=O)c1ccc(C(=O)O)cc1)C(=O)N1CCN(CCCOc2ccc(-c3noc(CC4CCCC4)n3)c(F)c2)CC1 [Example 186, 4-[({(1R)-2-[4-(3-{4-[5-(cyclopentylmethyl)-1,2,4-oxadiazol-3-yl]-3-fluorophenoxy}propyl)-1-piperazinyl]-1-methyl-2-oxoethyl}amino)carbonyl]benzoic acid]
8.75	CC(C)C(=O)N[C@H](C)C(=O)N1CCCN(CCCOc2ccc(-c3noc(CC4CCCC4)n3)c(F)c2)CC1 [Example 177, N-{(1R)-2-[4-(3-{4-[5-(cyclopentylmethyl)-1,2,4-oxadiazol-3-yl]-3-fluorophenoxy}propyl)-1,4-diazepan-1-yl]-1-methyl-2-oxoethyl}-2-methylpropanamide]
9.13	C[C@@H](NC(=O)c1ccco1)C(=O)N1CCN(CCCOc2ccc(C(=O)C3CC3)cc2)CC1 [Example 126, N-((1R)-2-(4-(3-(4-(cyclopropylcarbonyl)phenoxy)propyl)-1-piperazinyl)-1-methyl-2-oxoethyl)-2-furamide]
7.98	CC(C)Oc1ccc(C(=O)N[C@H](C)C(=O)N2CCN(CCCOc3ccc(-c4noc(CC5CCCC5)n4)c(F)c3)CC2)cc1 [Example 184, N-{(1R)-2-[4-(3-{4-[5-(cyclopentylmethyl)-1,2,4-oxadiazol-3-yl]-3-fluorophenoxy}propyl)-1-piperazinyl]-1-methyl-2-oxoethyl}-4-isopropoxybenzamide]
8.78	C[C@@H](NC(=O)c1cccnc1)C(=O)N1CCN(CCCOc2ccc(-c3noc(CC4CCCC4)n3)c(F)c2)CC1 [Example 181, N-{(1R)-2-[4-(3-{4-[5-(cyclopentylmethyl)-1,2,4-oxadiazol-3-yl]-3-fluorophenoxy}propyl)-1-piperazinyl]-1-methyl-2-oxoethyl}nicotinamide]
8.09	C[C@@H](NC(=O)c1ccc(Cl)cc1)C(=O)N1CCCN(CCCOc2ccc(-c3noc(CC4CCCC4)n3)c(F)c2)CC1 [Example 178, 4-chloro-N-{(1R)-2-[4-(3-{4-[5-(cyclopentylmethyl)-1,2,4-oxadiazol-3-yl]-3-fluorophenoxy}propyl)-1,4-diazepan-1-yl]-1-methyl-2-oxoethyl}benzamide]
